Experimental data: patent US7078389B2, “Chemically modified oligonucleotide for site-directed mutagenesis” (priority 1993, dated 2006)

Experiments:
[1] = system: supF gene within the SV40 vector pSP189; test: Hinf I restriction enzyme protection assay, SV40 vector DNA target; format: binding; conditions: vector 50 nM
Protocol: The binding and irradiation were carried out as described above, except that pSP189 was used as the supF target at a concentration of 50 nM and psoralen-AG10 was added at ratios of oligomer to vector of from 1:1 to 1000:1. Irradiation and gel conditions were as described above.
Similar experiments were performed to assay for site-specific binding of psoralen-AG10 to bp 167–176 in the supF gene within the SV40 vector itself. In these experiments, varying ratios of oligonucleotide to vector DNA were employed in order to examine basic parameters of the triplex binding to the viral genome. […] Binding of psoralen-AG10 as a triple strand to bp 167–176 of the supF gene within the SV40 vector was assayed by examining protection from Hinf I digestion at bp 164–168, as diagrammed in FIG. 4. The SV40 vector containing the supF target gene (50 nM) was incubated with psoralen-AG10 at ratios of oligomer to vector of from 1:1 to 1000:1, irradiated with 1.8 J/cm^2 of UVA, digested with Hinf I, and run on a 4.5% Nusieve gel. Because the sequences flanking the supF gene in the SV40 DNA differ from those in the PCR fragment, and since there are multiple Hinf I sites in SV40, the pattern of bands is more complex.

[2] = system: supF gene contained within the chromosomes of the LN12 cells; test: Targeted mutagenesis in mouse fibroblast LN12 cells; format: cell-based
Source text: For the purposes of achieving targeted mutagenesis in mouse cells in vivo, the assay system to detect mutations in the chromosomes of mouse fibroblasts in culture developed by Glazer et al. was used (Proc. Natl. Acad. Sci. USA 83:1041–1044, (1986), which is incorporated by reference herein). This system allows detection and analysis of mutations occurring in the supF gene contained within the chromosomes of the LN12 cells, a derivative of mouse L cells into whose chromosomes multiple copies of the lambda supF shuttle vector were inserted.
The LN12 cells, growing in culture, were treated with the oligonucleotide, psoralen-AG10, which is designed to target mutations to base pair 167 in the supF gene via sequence-specific triplex formation and thereby delivery of the psoralen to that site. This oligonucleotide was used also in the lambda and the SV40 experiments. The oligonucleotide was added directly to the growth medium of the cells at various concentrations in the range of 0.1 to 50 μM. Two hours later, the cells were exposed to 0.07 J/cm^2 of UVA irradiation, the cells were allowed to grow for an additional 2 to 4 days, and then DNA was prepared from the cells to analyze for mutations in the supF gene. Using lambda in vitro packaging extracts to rescue the supF gene in the lambda vector from within the mouse DNA (as described by Glazer et al., cited above), mutations were detected in approximately 0.05% of the supF genes. Over forty mutant supF genes have been isolated in these recent experiments (from all concentrations of oligonucleotide studied), but the sequence of only one has been determined so far.

Substance: 4′-hydroxymethyl-4,5′,8-trimethylpsoralen-^5′AGGAAGGGGG^3′ (DNA NAGGAAGGGGG; 4'-hydroxymethyl-4,5',8-trimethylpsoralen conjugated at 5' end, further chemistry not given here) [pso-AG10]
- Hinf I protection at the targeted site ([1]; oligomer to vector 1:1, UVA 1.8 J/cm^2): only partial protection
- Hinf I protection at the targeted site ([1]; oligomer to vector 2:1, UVA 1.8 J/cm^2): only partial protection
- Hinf I protection at the targeted site ([1]; oligomer to vector 10:1, UVA 1.8 J/cm^2): almost complete
- Hinf I protection at the targeted site ([1]; oligomer to vector 100:1, UVA 1.8 J/cm^2): near complete protection
- Hinf I protection at the targeted site ([1]; oligomer to vector 1000:1, UVA 1.8 J/cm^2): near complete protection
- Share of supF genes with mutations ([2]; 0.1 to 50 μM in growth medium, 2 hours, UVA 0.07 J/cm^2, 2 to 4 days growth): approximately 0.05%
- Relation of supF mutation frequency to oligonucleotide concentration ([2]; 0.1 to 50 μM, FIG. 6): dose-response relationship
- Sequence of the one supF mutant determined ([2]; LN12 cells): T:A to A:T transversion exactly at the targeted base pair
